Test results taken from patent US9783532B2, “Molecules having certain pesticidal utilities, and intermediates, compositions, and processes related thereto” (Dow AgroSciences LLC, priority 2013, dated 2017).

How the values were obtained:
[1] = system: Beet Armyworm (Spodoptera exigua) ("BAW"); assay: Bioassay on beet armyworm (BAW), 128-well diet tray assay; assay type: in vivo; details: Table ABC (PC), activity rating class, read-out: BAW (Biological Results, Insect species)
Method in brief: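 Percent mortality, averaged across eight wells, was read after five to seven days at 25° C. under 14:10 light-dark. Each well held one to five second-instar larvae on artificial diet that had been treated with 50 μg/cm^2 compound in 90:10 acetone-water and dried.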

[2] = system: Cabbage Looper (Trichoplusia ni) ("CL"); assay: Bioassay on cabbage looper (CL), 128-well diet tray assay; assay type: in vivo; details: Table ABC (PC), activity rating class, read-out: CL (Biological Results, Insect species)
Method in brief: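 Percent mortality, averaged across eight replicate wells, was read after five to seven days at 25 °C under a 14:10 photoperiod. Each well held one to five second-instar T. ni on diet carrying a dried 50 μg/cm^2 dose applied in acetone-water 90:10.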

| Compound | pest or weed control at 50 µg/cm2 [1] [%] | pest or weed control at 50 µg/cm2 [2] [%] |
| --- | --- | --- |
| CCc1ccccc1NC(=S)NC(=O)NCCCCc1ccc(-c2ncn(-c3ccc(OC(F)(F)F)cc3)n2)cc1 [PC145, 1-[(2-ethylphenyl)carbamothioyl]-3-[4-[4-[1-[4-(trifluoromethoxy)phenyl]-1H-1,2,4-triazol-3-yl]phenyl]butyl]urea] | 50 to 100 | 50 to 100 |
| CC(C)c1ccccc1NC(=S)NC(=O)NCCCCc1ccc(-c2ncn(-c3ccc(OC(F)(F)F)cc3)n2)cc1 [PC146, 1-[(2-isopropylphenyl)carbamothioyl]-3-[4-[4-[1-[4-(trifluoromethoxy)phenyl]-1H-1,2,4-triazol-3-yl]phenyl]butyl]urea] | 50 to 100 | 50 to 100 |
| Cc1ccc(C(C)C)c(NC(=S)NC(=O)NCCCCc2ccc(-c3ncn(-c4ccc(OC(F)(F)F)cc4)n3)cc2)c1 [PC150, 1-[(2-isopropyl-5-methyl-phenyl)carbamothioyl]-3-[4-[4-[1-[4-(trifluoromethoxy)phenyl]-1H-1,2,4-triazol-3-yl]phenyl]butyl]urea] | 50 to 100 | 50 to 100 |
| Cc1cccc(C)c1NC(=S)NC(=O)NCCCCc1ccc(-c2ncn(-c3ccc(OC(F)(F)F)cc3)n2)cc1 [PC152, 1-[(2,6-dimethylphenyl)carbamothioyl]-3-[4-[4-[1-[4-(trifluoromethoxy)phenyl]-1H-1,2,4-triazol-3-yl]phenyl]butyl]urea] | 50 to 100 | 50 to 100 |
| Cc1ccc(NC(=S)NC(=O)NCCCCc2ccc(-c3ncn(-c4ccc(OC(F)(F)F)cc4)n3)cc2)c(C(C)C)c1 [PC154, 1-[(2-isopropyl-4-methyl-phenyl)carbamothioyl]-3-[4-[4-[1-[4-(trifluoromethoxy)phenyl]-1H-1,2,4-triazol-3-yl]phenyl]butyl]urea] | 50 to 100 | 50 to 100 |
| CC(C)c1cc(F)ccc1NC(=S)NC(=O)NCCCCc1ccc(-c2ncn(-c3ccc(OC(F)(F)F)cc3)n2)cc1 [PC155, 1-[(4-fluoro-2-isopropyl-phenyl)carbamothioyl]-3-[4-[4-[1-[4-(trifluoromethoxy)phenyl]-1H-1,2,4-triazol-3-yl]phenyl]butyl]urea] | 50 to 100 | 50 to 100 |
| COc1ccc(C(C)C)c(NC(=S)NC(=O)NCCCCc2ccc(-c3ncn(-c4ccc(OC(F)(F)F)cc4)n3)cc2)c1 [PC156] | 50 to 100 | 50 to 100 |
| Cc1ccc(C(C)C)c(NC(=S)NC(=O)NCCCCc2ccc(-c3ncn(-c4ccc(C(F)(F)F)cc4)n3)cc2)c1 [PC159, 1-[(2-isopropyl-5-methyl-phenyl)carbamothioyl]-3-[4-[4-[1-[4-(trifluoromethyl)phenyl]-1H-1,2,4-triazol-3-yl]phenyl]butyl]urea] | 50 to 100 | 50 to 100 |
| Cc1ccc(C(C)C)c(NC(=S)NC(=O)NCCC#Cc2ccc(-c3ncn(-c4ccc(OC(F)(F)F)cc4)n3)cc2)c1 [PC160, 1-[(2-isopropyl-5-methyl-phenyl)carbamothioyl]-3-[4-[4-[1-[4-(trifluoromethoxy)phenyl]-1H-1,2,4-triazol-3-yl]phenyl]but-3-ynyl]urea] | 50 to 100 | 50 to 100 |
| Cc1ccccc1NC(=S)NC(=O)NCCCCc1cccc(-c2ncn(-c3ccc(OC(F)(F)F)cc3)n2)c1 [PC170, 1-(o-tolylcarbamothioyl)-3-[4-[3-[1-[4-(trifluoromethoxy)phenyl]-1H-1,2,4-triazol-3-yl]phenyl]butyl]urea] | 0 to 50 | 50 to 100 |
| CCc1ccccc1NC(=S)NC(=O)NCCCCc1cccc(-c2ncn(-c3ccc(OC(F)(F)F)cc3)n2)c1 [PC171, 1-[(2-ethylphenyl)carbamothioyl]-3-[4-[3-[1-[4-(trifluoromethoxy)phenyl]-1H-1,2,4-triazol-3-yl]phenyl]butyl]urea] | 0 to 50 | 50 to 100 |
